Reference: patent US10925876B2, “Methods for using triazolo-pyrazinyl soluble guanylate cyclase activators in fibrotic disorders” (Merck Sharp & Dohme Corp., priority 2016, dated 2021)

target: T1, sGC α1/β1 heterodimer (Homo sapiens, UniProt Q02108+Q02153); experiment: Cell-Based sGC Functional Assay (CASA Assay), cGMP generation in CHO-K1/sGC cells; conditions: maximum cGMP production of Compound A set to 100% activation, read-out: % Act. (percent activation relative to Compound A)
T1 construct: expressed in transfected cells
T1 sequence (Q02108 1-690): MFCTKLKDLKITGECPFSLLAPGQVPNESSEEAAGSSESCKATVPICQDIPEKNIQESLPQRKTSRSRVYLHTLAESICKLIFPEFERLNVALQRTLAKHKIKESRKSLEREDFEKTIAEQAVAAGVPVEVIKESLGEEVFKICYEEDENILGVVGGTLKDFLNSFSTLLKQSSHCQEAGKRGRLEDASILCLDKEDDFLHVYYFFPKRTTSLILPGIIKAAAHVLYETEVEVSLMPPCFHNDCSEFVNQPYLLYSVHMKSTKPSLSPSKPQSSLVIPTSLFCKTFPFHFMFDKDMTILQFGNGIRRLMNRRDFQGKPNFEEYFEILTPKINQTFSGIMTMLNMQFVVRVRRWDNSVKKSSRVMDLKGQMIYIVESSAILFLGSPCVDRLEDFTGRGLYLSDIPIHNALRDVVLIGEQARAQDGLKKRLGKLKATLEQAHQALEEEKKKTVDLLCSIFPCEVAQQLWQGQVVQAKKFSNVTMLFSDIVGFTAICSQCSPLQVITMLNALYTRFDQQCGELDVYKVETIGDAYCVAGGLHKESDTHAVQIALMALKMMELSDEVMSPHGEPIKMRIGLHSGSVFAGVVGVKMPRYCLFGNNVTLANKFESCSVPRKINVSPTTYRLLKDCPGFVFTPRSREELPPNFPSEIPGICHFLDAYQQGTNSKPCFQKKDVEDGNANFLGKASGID
T1 sequence (Q02153 1-619): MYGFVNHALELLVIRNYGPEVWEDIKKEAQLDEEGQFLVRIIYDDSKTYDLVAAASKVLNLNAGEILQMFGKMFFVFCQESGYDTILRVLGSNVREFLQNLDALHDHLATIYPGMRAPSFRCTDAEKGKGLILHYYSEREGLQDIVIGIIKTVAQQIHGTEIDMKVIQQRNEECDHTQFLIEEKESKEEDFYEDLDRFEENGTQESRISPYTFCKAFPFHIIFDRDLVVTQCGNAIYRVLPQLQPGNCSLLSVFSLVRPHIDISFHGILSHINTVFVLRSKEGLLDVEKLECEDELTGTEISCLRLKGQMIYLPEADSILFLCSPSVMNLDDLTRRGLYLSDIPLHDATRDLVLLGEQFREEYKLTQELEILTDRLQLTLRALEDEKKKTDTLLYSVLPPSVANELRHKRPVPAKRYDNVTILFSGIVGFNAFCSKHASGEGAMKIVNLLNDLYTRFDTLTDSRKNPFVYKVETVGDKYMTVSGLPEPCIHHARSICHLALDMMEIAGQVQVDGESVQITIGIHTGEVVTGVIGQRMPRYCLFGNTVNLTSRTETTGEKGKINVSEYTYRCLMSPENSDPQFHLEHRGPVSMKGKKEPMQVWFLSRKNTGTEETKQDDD
Text: sGC is a heme-containing enzyme that converts GTP to secondary messenger cGMP. Increases in cGMP levels affect several physiological processes including vasorelaxation through multiple downstream pathways. […] Heme-dependent activators (HDAs) preferentially activate sGC containing a ferrous heme group. To determine the effect of sGC activators on enzyme activity, the CASA assay was developed to monitor the generation of cGMP in a cell line that stably expresses the heterodimeric sGC protein.
A CHO-K1 cell line stably expressing the sGC α1/β1 heterodimer was generated using a standard transfection protocol. CHO-K1 cells were transfected with plasmids pIREShyghsGCα1 and pIRESneo-hsGCβ1 simultaneously using FUGENE reagent. Clones that stably express both subunits were selected with hygromycin and neomycin for ˜2 weeks. Clone #7 was chosen for the assay and was designated CHO-K1/sGC. CHO-K1/sGC cells were maintained in F-K12 medium containing 10% heat-inactivated Fetal Bovine Serum (FBS), 100 μg/mL penicillin/streptomycin, 0.5 mg/mL hygromycin and 0.25 mg/mL G418. The cells were then cryopreserved in LN2. On the day of the assay, cells thawed and resuspended in EBSS Assay Buffer (Sigma, E3024) supplemented with 5 mM MgCl2, 10 mM HEPES (4-(2-hydroxyethyl)piperazine-1-ethanesulfonic acid) and 0.05% BSA (bovine serum albumin) (EAB) and cell density was then adjusted to 4×10^5/mL with EAB. IBMX (3-isobutyl-1-methylxanthin, 0.5 mM) was added to inhibit degradation of cGMP. Compounds were diluted from DMSO stock solutions and added to the assay at a final DMSO concentration of 2.5%. Cells were incubated with compounds in the presence and absence of 1 μM of Diethylenetriamine/nitric oxide adduct (DETA-NO; Sigma, 17018) for 1 hr at 37° C. At the end of the incubation period, the reaction was terminated and the cells were lysed with the detection reagents from Cisbio Kits. The level of intracellular cGMP was determined using an HTRF-based assay kit (CisBio, 62GM2PEC), which detects the displacement of a fluorescence labeled cGMP from its specific antibody. The cGMP produced by test compounds was directly compared to the maximum cGMP production (this value was set to equal 100% activation.) of the published sGC-HDA Compound A:
[drawing 298] (Example 1 in WO 2010/065275, published Jun. 10, 2010). The test compounds' activities were then expressed as a percentage of Compound A, the standard in every experiment. This percent activation was calculated either in the presence or absence of DETA-NO which was then plotted. IP and maximum fold induction was derived using ADA analysis software for 4P fit.

Emax [%]	SMILES
191	CC1(c2cnc(C(F)(F)F)cn2)C(=O)Nc2nc(-c3cn4ncnc4c(CCCC(F)(F)F)n3)nc(N)c21 (stereo not shown) [Example 50B, 4-amino-5-methyl-2-(8-(4,4,4-trifluorobutyl)-[1,2,4]triazolo[1,5-a]pyrazin-6-yl)-5-(5-(trifluoromethyl)pyrazin-2-yl)-5H-pyrrolo[2,3-d]pyrimidin-6(7H)-one]
210	CCCc1nc(-c2nc(N)c3c(n2)NC(=O)C3(C)c2ccc(F)cn2)cn2ncnc12 (stereo not shown) [Example 54B, 4-amino-5-(5-fluoropyridin-2-yl)-5-methyl-2-(8-propyl-[1,2,4]triazolo[1,5-a]pyrazin-6-yl)-5H-pyrrolo[2,3-d]pyrimidin-6(7H)-one]
99	CCCc1nc(-c2nc(N)c3c(n2)NC(=O)C3(C)c2ccc(Cl)c(F)c2)cn2ncnc12 (stereo not shown) [Example 55B]
119	CCCc1nc(-c2nc(N)c3c(n2)NC(=O)C3(c2ccc(Cl)cn2)C2CC2)cn2ncnc12 (stereo not shown) [Example 57A, 4-amino-5-(5-chloropyridin-2-yl)-5-cyclopropyl-2-(8-propyl-[1,2,4]triazolo[1,5-a]pyrazin-6-yl)-5H-pyrrolo[2,3-d]pyrimidin-6(7H)-one]
169	CCCc1nc(-c2nc(N)c3c(n2)NC(=O)C3(c2ccc(F)c(F)c2)C2CC2)cn2ncnc12 (stereo not shown) [Example 58A, 4-amino-5-cyclopropyl-5-(3,4-difluorophenyl)-2-(8-propyl-[1,2,4]triazolo[1,5-a]pyrazin-6-yl)-5H-pyrrolo[2,3-d]pyrimidin-6(7H)-one]
119	CCCc1nc(-c2nc(N)c3c(n2)NC(=O)C3(c2ccc(F)cn2)C2CC2)cn2ncnc12 (stereo not shown) [Example 59A, 4-amino-5-cyclopropyl-5-(5-fluoropyridin-2-yl)-2-(8-propyl-[1,2,4]triazolo[1,5-a]pyrazin-6-yl)-5H-pyrrolo[2,3-d]pyrimidin-6(7H)-one]
267	CCCCc1nc(-c2nc(N)c3c(n2)NC(=O)C3(C)c2ccc(Cl)c(F)c2)cn2ncnc12 (stereo not shown) [Example 62B, 4-amino-2-(8-butyl-[1,2,4]triazolo[1,5-a]pyrazin-6-yl)-5-(4-chloro-3-fluorophenyl)-5-methyl-5H-pyrrolo[2,3-d]pyrimidin-6(7H)-one]
158	CCCCc1nc(-c2nc(N)c3c(n2)NC(=O)C3(C)c2ccc(Cl)cn2)cn2ncnc12 (stereo not shown) [Example 69A, 4-amino-2-(8-butyl-[1,2,4]triazolo[1,5-a]pyrazin-6-yl)-5-(5-chloropyridin-2-yl)-5-methyl-5H-pyrrolo[2,3-d]pyrimidin-6(7H)-one]
136	CC1(c2ccc(Cl)c(F)c2)C(=O)Nc2nc(-c3cn4ncnc4c(CCC(F)(F)F)n3)nc(N)c21 (stereo not shown) [Example 75B, 4-amino-5-(4-chloro-3-fluorophenyl)-5-methyl-2-(8-(3,3,3-trifluoropropyl)-[1,2,4]triazolo[1,5-a]pyrazin-6-yl)-5H-pyrrolo[2,3-d]pyrimidin-6(7H)-one]
115	CC1(c2ccc(F)cn2)C(=O)Nc2nc(-c3cn4ncnc4c(CCC(F)(F)F)n3)nc(N)c21 (stereo not shown) [Example 81B, 4-amino-5-(5-fluoropyridin-2-yl)-5-methyl-2-(8-(3,3,3-trifluoropropyl)-[1,2,4]triazolo[1,5-a]pyrazin-6-yl)-5H-pyrrolo[2,3-d]pyrimidin-6(7H)-one]

The next lines start with the compound.

SMILES	Emax [%]
CCCc1nc(-c2nc(N)c3c(n2)NC(=O)[C@@]3(C)c2ccc(F)cc2)cn2ncnc12 [Example 52A, (S)-4-amino-5-(4-fluorophenyl)-5-methyl-2-(8-propyl-[1,2,4]triazolo[1,5-a]pyrazin-6-yl)-5,7-dihydro-6H-pyrrolo[2,3-d]pyrimidin-6-one]	96
CCCc1nc(-c2nc(N)c3c(n2)NC(=O)C3(C)c2ccc(Cl)cc2)cn2ncnc12 (stereo not shown) [Example 53A, 4-amino-5-(4-chlorophenyl)-5-methyl-2-(8-propyl-[1,2,4]triazolo[1,5-a]pyrazin-6-yl)-5H-pyrrolo[2,3-d]pyrimidin-6(7H)-one]	122
CCCCc1nc(-c2nc(N)c3c(n2)NC(=O)C3(C)c2ccc(Cl)cc2)cn2ncnc12 (stereo not shown) [Example 63A, 4-amino-2-(8-butyl-[1,2,4]triazolo[1,5-a]pyrazin-6-yl)-5-(4-chlorophenyl)-5-methyl-5H-pyrrolo[2,3-d]pyrimidin-6(7H)-one]	187
CCCCc1nc(-c2nc(N)c3c(n2)NC(=O)C3(C)c2ccc(F)c(F)c2)cn2ncnc12 (stereo not shown) [Example 64B, 4-amino-2-(8-butyl-[1,2,4]triazolo[1,5-a]pyrazin-6-yl)-5-(3,4-difluorophenyl)-5-methyl-5H-pyrrolo[2,3-d]pyrimidin-6(7H)-one]	90
CCCCc1nc(-c2nc(N)c3c(n2)NC(=O)C3(c2ccc(F)cn2)C2CC2)cn2ncnc12 (stereo not shown) [Example 66A, 4-amino-2-(8-butyl-[1,2,4]triazolo[1,5-a]pyrazin-6-yl)-5-cyclopropyl-5-(5-fluoropyridin-2-yl)-5H-pyrrolo[2,3-d]pyrimidin-6(7H)-one]	162
CCCCc1nc(-c2nc(N)c3c(n2)NC(=O)C3(c2ccc(Cl)cn2)C2CC2)cn2ncnc12 (stereo not shown) [Example 68A, 4-amino-2-(8-butyl-[1,2,4]triazolo[1,5-a]pyrazin-6-yl)-5-(5-chloropyridin-2-yl)-5-cyclopropyl-5H-pyrrolo[2,3-d]pyrimidin-6(7H)-one]	113
CCCCc1nc(-c2nc(N)c3c(n2)NC(=O)C3(c2ccc(C(F)(F)F)cn2)C2CC2)cn2ncnc12 (stereo not shown) [Example 70A, 4-amino-2-(8-butyl-[1,2,4]triazolo[1,5-a]pyrazin-6-yl)-5-cyclopropyl-5-(5-(trifluoromethyl)pyridin-2-yl)-5H-pyrrolo[2,3-d]pyrimidin-6(7H)-one]	133
CCCCc1nc(-c2nc(N)c3c(n2)NC(=O)C3(C)c2ccc(C)cn2)cn2ncnc12 (stereo not shown) [Example 71B, 4-amino-2-(8-butyl-[1,2,4]triazolo[1,5-a]pyrazin-6-yl)-5-methyl-5-(5-methylpyridin-2-yl)-5H-pyrrolo[2,3-d)pyrimidin-6(7H)-one]	118
Nc1nc(-c2cn3ncnc3c(CCC(F)(F)F)n2)nc2c1C(c1ccc(C(F)(F)F)cn1)(C1CC1)C(=O)N2 (stereo not shown) [Example 80A, 4-amino-5-cyclopropyl-5-(5-(trifluoromethyl)pyridin-2-yl)-2-(8-(3,3,3-trifluoropropyl)-[1,2,4]triazolo[1,5-a]pyrazin-6-yl)-5H-pyrrolo[2,3-d]pyrimidin-6(7H)-one]	115
